{"source": "the supplement of paper PMC8976852", "assay_in_all_cases": "activity (1 - area under the dose-response curve within the screened range) (fraction); higher = more sensitive", "settings_in_all_cases": "treatment time: 72 h", "key": {"[1]": {"tested_on": "HCM-SANG-0266-C20 (colorectal cancer organoid)", "procedure,_shortened": "(§1)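 Colorectal and oesophageal cancer organoids derived from patients were grown in 5% or 80% ECM (BME-2) and later seeded on an ECM layer in 384-well plates for a 3-day treatment with a 7-point half-log dilution series. Curves were fitted with a non-linear mixed effects model, and fits whose RMSE exceeded 0.3 were excluded. Activity was defined as the complement of the area beneath each fitted curve within the screened dose range.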"}, "[2]": {"tested_on": "HCM-SANG-0270-C20 (colorectal cancer organoid)", "procedure,_shortened": "as §1"}, "[3]": {"tested_on": "HCM-SANG-0291-C15 (oesophageal cancer organoid)", "procedure,_shortened": "as §1"}, "[4]": {"tested_on": "HCM-SANG-0532-C20 (colorectal cancer organoid)", "procedure,_shortened": "as §1"}, "[5]": {"settings": "ECM percentage in culture prior to screening 5 %"}, "[6]": {"settings": "ECM percentage in culture prior to screening 80 %"}}, "note": "± gives the standard deviation of the averaged measurements."}
{"smiles": "O=C(CCCCCCC(=O)Nc1ccccc1)NO", "note": "[Vorinostat]", "values": [{"measurement": "activity", "setting": "[1]; [5]", "result": "0.225 ± 0.032"}, {"measurement": "activity", "setting": "[1]; [6]", "result": "0.172 ± 0.032"}, {"measurement": "activity", "setting": "[2]; [5]", "result": "0.163 ± 0.017"}, {"measurement": "activity", "setting": "[2]; [6]", "result": "0.153 ± 0.028"}, {"measurement": "activity", "setting": "[3]; [5]", "result": "0.232 ± 0.021"}, {"measurement": "activity", "setting": "[3]; [6]", "result": "0.222 ± 0.03"}, {"measurement": "activity", "setting": "[4]; [5]", "result": "0.132 ± 0.022"}, {"measurement": "activity", "setting": "[4]; [6]", "result": "0.211 ± 0.034"}]}
